Test [1] concerns Mnk2 (Mnk2a or Mnk2b) or Mnk1. The note with it: addition to cell culture cells transfected with Mnk2 (Mnk2a or Mnk2b) or Mnk1; cited from earlier work.
The target in test [2] is T1, MNK2 (Homo sapiens, UniProt Q9HBH9).
T1 construct: the open reading frames of human Mnk1 and Mnk2a were amplified from cDNA; made in house; host or cells: E. coli BL21
Briefly: Mnk2a in vitro kinase assay (indirect fluorescence polarization). In kind it is biochemical. Conditions: pre-activated GST-Mnk2a 2.5 nM, 20 μM ATP, 30 μM substrate peptide. An outline of the steps: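 Human GST-Mnk2a was expressed in E. coli and activated in vitro with 150 nM pre-activated ERK2 and 50 μM ATP in HEPES pH 7.4/MgCl2 buffer (45 min, 30 °C). Activity on an eIF4E Ser209-derived 12mer peptide was read by competitive fluorescence polarization with a phospho-specific antibody.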
A general note: Polarisation of emitted light reports the rotation of a fluorescent probe.

T1 sequence (Q9HBH9 whole entry): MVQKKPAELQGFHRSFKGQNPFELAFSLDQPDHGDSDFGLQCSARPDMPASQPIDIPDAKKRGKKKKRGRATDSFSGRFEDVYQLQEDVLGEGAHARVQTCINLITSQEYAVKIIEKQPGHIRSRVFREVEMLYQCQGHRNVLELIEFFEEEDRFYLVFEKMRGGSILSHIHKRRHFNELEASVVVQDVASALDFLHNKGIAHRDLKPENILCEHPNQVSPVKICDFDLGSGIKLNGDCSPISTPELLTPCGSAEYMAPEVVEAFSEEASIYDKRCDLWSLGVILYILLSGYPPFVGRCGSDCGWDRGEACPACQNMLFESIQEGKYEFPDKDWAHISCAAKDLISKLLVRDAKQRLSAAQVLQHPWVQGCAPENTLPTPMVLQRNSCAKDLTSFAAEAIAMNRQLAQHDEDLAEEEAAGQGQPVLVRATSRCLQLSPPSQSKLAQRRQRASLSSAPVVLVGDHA

`Nc1ncnc2n[nH]c(Nc3ccc(F)cc3)c12` [CGP57380]: the “reduction of phosphorylated eIF4E” value in test [1] is reported as “strong reduction”.
The IC50 is the midpoint of a concentration-inhibition curve. Low values mean greater potency, high ones weaker potency. `Cc1c(C(N)=O)sc2ncnc(Nc3ccc(F)cc3OC3CCCC3)c12` [Example 244, 4-(2-Cyclopentoxy-4-fluoro-phenylamino)-5-methyl-thieno[2,3-d]pyrimidine-6-carboxylic acid amide]: the IC50 in test [2] is 2 nM.
On the same count and under the same terms, with `CC(=O)N[C@H]1C[C@H](Oc2cc(F)ccc2Nc2ncnc3sc(C(=O)NCC#CCN(C)C)c(C)c23)C1` [Example 245, 4-[2-(trans-3-Acetylamino-cyclobutoxy)-4-fluoro-phenylamino]-5-methyl-thieno[2,3-d]pyrimidine-6-carboxylic acid (4-dimethylamino-but-2-ynyl)-amide] the figure was 39 nM.
Still for that read-out and setting: with `CC(=O)N[C@H]1C[C@H](Oc2cc(F)ccc2Nc2ncnc3sc(C(=O)N[C@H]4C[C@@H]4N)c(C)c23)C1` [Example 246, 4-[2-(trans-3-Acetylamino-cyclobutoxy)-4-fluoro-phenylamino]-5-methyl-thieno[2,3-d]pyrimidine-6-carboxylic acid (2-amino-cyclopropyl)-amide] the figure was 65 nM.
On the same count and under the same terms, with `COC(=O)c1sc2ncnc(Nc3ccc(F)cc3O[C@@H]3CCCC[C@H]3OC)c2c1C` [Example 247, 4-[4-Fluoro-2-((1R,2R)-2-methoxy-cyclohexyloxy)-phenylamino]-5-methyl-thieno[2,3-d]pyrimidine-6-carboxylic acid methyl ester] the figure was 139 nM.
Consider `CO[C@@H]1CCCC[C@H]1Oc1cc(F)ccc1Nc1ncnc2sc(C(=O)O)c(C)c12` [Example 248, 4-[4-Fluoro-2-((1R,2R)-2-methoxy-cyclohexyloxy)-phenylamino]-5-methyl-thieno[2,3-d]pyrimidine-6-carboxylic acid], for which the IC50 in test [2] worked out at 10 nM.
The same measure, in the same setting: with `CO[C@@H]1CCCC[C@H]1Oc1cc(F)ccc1Nc1ncnc2sc(C(N)=O)c(C)c12` [Example 249, 4-[4-Fluoro-2-((1R,2R)-2-methoxy-cyclohexyloxy)-phenylamino]-5-methyl-thieno[2,3-d]pyrimidine-6-carboxylic acid amide] the figure was 6 nM.
Same read-out and setting: then `COC1CCCCC1Oc1cc(F)ccc1Nc1ncnc2sc(C(=O)NC3CCCC3O)c(C)c12` (stereo not shown) [Example 250], with 19 nM; and `CO[C@@H]1CCCC[C@H]1Oc1cc(F)ccc1Nc1ncnc2sc(C(=O)N[C@@H]3CCC[C@H]3O)c(C)c12` [Example 251], with 20 nM.
The same measure, in the same setting: then `CO[C@@H]1CCCC[C@H]1Oc1cc(F)ccc1Nc1ncnc2sc(C(=O)NCCSC)c(C)c12` [Example 252], with 18 nM; and `CO[C@@H]1CCCC[C@H]1Oc1cc(F)ccc1Nc1ncnc2sc(C(=O)NCCCN3CCCC3)c(C)c12` [Example 254], with 11 nM; and `CO[C@@H]1CCCC[C@H]1Oc1cc(F)ccc1Nc1ncnc2sc(C(=O)NCC[S+](C)[O-])c(C)c12` (stereo partly shown) [Example 255], with 14 nM.
For the molecule `Cc1c(C(=O)NCCCN2CCCC2)sc2ncnc(Nc3ccc(F)cc3OC3CCCCC3O)c12` (stereo not shown) [Example 263], inhibition in test [2] was half-maximal at 175 nM (IC50).
The same measure, in the same setting: then `Cc1c(C(=O)NCCO)sc2ncnc(Nc3cccnc3O[C@H]3CC[C@H](O)CC3)c12` [Example 266, 4-[2-(trans-4-hydroxy-cyclohexyloxy)-pyridine-3-ylamino]-5-methyl-thieno[2,3-d]pyrimidine-6-carboxylic acid (2-hydroxy-ethyl)-amide], with 15 nM; and `Cc1c(C(=O)NCC#CCN(C)C)sc2ncnc(Nc3cccnc3O[C@H]3CC[C@H](O)CC3)c12` [Example 267], with 10 nM; and `Cc1c(C(=O)NCCCN2CCCC2)sc2ncnc(Nc3cccnc3O[C@H]3CC[C@H](O)CC3)c12` [Example 268], with 14 nM.
On the same count and under the same terms, then `Cc1c(C(=O)NC2CCN(C)CC2)sc2ncnc(Nc3cccnc3O[C@H]3CC[C@H](O)CC3)c12` [Example 269], with 24 nM; and `Cc1c(C(=O)NCCCN2CCC2)sc2ncnc(Nc3cccnc3O[C@H]3CC[C@H](O)CC3)c12` [Example 270], with 58 nM.
The molecule `Cc1c(C(=O)NCCCN2CCCC2=O)sc2ncnc(Nc3ccc(F)cc3O[C@H]3CC[C@H](O)CC3)c12` [Example 271, 4-[4-Fluoro-2-(trans-4-hydroxy-cyclohexyloxy)-phenylamino]-5-methyl-thieno[2,3-d]pyrimidine-6-carboxylic acid [3-(2-oxo-pyrrolidin-1-yl)-propyl]amide] had an IC50 in test [2] of 12 nM.
In test [2], `CO[C@H]1CC[C@H](Oc2cc(F)ccc2Nc2ncnc3sc(C(=O)NCCCN4CCCCC4)c(C)c23)CC1` [Example 275] registered an IC50 of 10 nM. This IC50 and that of the molecule before are within 1.5-fold of each other.
On the same count and under the same terms, then `CCN(CC)CCCNC(=O)c1sc2ncnc(Nc3ccc(F)cc3O[C@H]3CC[C@H](OC)CC3)c2c1C` [Example 276], with 12 nM; and `CO[C@H]1CC[C@H](Oc2cc(F)ccc2Nc2ncnc3sc(C(=O)NCC(O)CN(C)C)c(C)c23)CC1` (stereo partly shown) [Example 277], with 13 nM.
Same read-out and setting: with `CO[C@H]1CC[C@H](Oc2cc(F)ccc2Nc2ncnc3sc(C(=O)NCCCN(CCO)CCO)c(C)c23)CC1` [Example 278] the figure was 7 nM; with `CO[C@H]1CC[C@H](Oc2cc(F)ccc2Nc2ncnc3sc(C(=O)NCCCN4CCCC4=O)c(C)c23)CC1` [Example 279], 11 nM; with `CO[C@H]1CC[C@H](Oc2cc(F)ccc2Nc2ncnc3sc(C(=O)NCCCN4C(=O)CCC4=O)c(C)c23)CC1` [Example 280], 9 nM.
On the same count and under the same terms, with `COC(=O)c1sc2ncnc(Nc3cccnc3O[C@H]3CC[C@H](N)CC3)c2c1C` [Example 281, 4-[2-(4-Amino-cyclohexyloxy)-pyridin-3-ylamino]-5-methyl-thieno[2,3-d]pyrimidine-6-carboxylic acid methyl ester] the figure was 66 nM.
With `Cc1c(C(=O)O)sc2ncnc(Nc3cccnc3O[C@H]3CC[C@H](N)CC3)c12` [Example 282, 4-[2-(4-Amino-cyclohexyloxy)-pyridin-3-ylamino]-5-methyl-thieno[2,3-d]pyrimidine-6-carboxylic acid], in test [2], the IC50 stood at 11 nM.
Same read-out and setting: with `Cc1c(C(N)=O)sc2ncnc(Nc3cccnc3O[C@H]3CC[C@H](N)CC3)c12` [Example 283, 4-[2-(4-Amino-cyclohexyloxy)-pyridin-3-ylamino]-5-methyl-thieno[2,3-d]pyrimidine-6-carboxylic acid amide] the figure was 6 nM.
The same measure, in the same setting: with `CCNC(=O)c1sc2ncnc(Nc3cccnc3O[C@H]3CC[C@H](N)CC3)c2c1C` [Example 284] the figure was 10 nM; with `CNC(=O)c1sc2ncnc(Nc3cccnc3O[C@H]3CC[C@H](N)CC3)c2c1C` [Example 285], 9 nM; with `CCCCNC(=O)c1sc2ncnc(Nc3cccnc3O[C@H]3CC[C@H](N)CC3)c2c1C` [Example 286], 4 nM.
In test [2], `Cc1c(C(=O)NC(C)C)sc2ncnc(Nc3cccnc3O[C@H]3CC[C@H](N)CC3)c12` [Example 287] came in with an IC50 of 5 nM.
Same read-out and setting: with `Cc1c(C(=O)NCCO)sc2ncnc(Nc3cccnc3O[C@H]3CC[C@H](N)CC3)c12` [Example 288] the figure was 19 nM.
Still for that read-out and setting: then `CCCNC(=O)c1sc2ncnc(Nc3cccnc3O[C@H]3CC[C@H](N)CC3)c2c1C` [Example 289, 4-[2-(4-Amino-cyclohexyloxy)-pyridin-3-ylamino]-5-methyl-thieno[2,3-d]pyrimidine-6-carboxylic acid propyl amide], with 2 nM.
Consider `Cc1c(C(=O)O)sc2ncnc(Nc3ccc(F)cc3O[C@H]3C[C@@H]4OCO[C@@H]4C3)c12` [Example 290, 4-[4-Fluoro-2-(tetrahydro-cyclopenta[1,3]dioxol-5-yloxy)phenylamino]-5-methyl-thieno[2,3-d]pyrimidine-6-carboxylic acid], for which the midpoint of inhibition in test [2], the IC50, lay at 8 nM.
Same read-out and setting: with `Cc1c(C(=O)NCCCN2CCCC2)sc2ncnc(Nc3ccc(F)cc3O[C@H]3C[C@@H]4OCO[C@@H]4C3)c12` [Example 291, 4-[4-Fluoro-2-(tetrahydro-cyclopenta[1,3]dioxol-5-yloxy)phenylamino]-5-methyl-thieno[2,3-d]pyrimidine-6-carboxylic acid (3-pyrrolidin-1-yl-propyl)-amide] the figure was 19 nM; with `Cc1c(C(=O)NC2CCN(C)CC2)sc2ncnc(Nc3ccc(F)cc3O[C@H]3C[C@@H]4OCO[C@@H]4C3)c12` [Example 292], 46 nM; with `Cc1c(C(N)=O)sc2ncnc(Nc3ccc(F)cc3O[C@H]3CCC[C@@H]3NC(=O)C3CC3)c12` [Example 293, (1S,2S) 4-{2-[2-(Cyclopropanecarbonyl-amino)-cyclopentyloxy]-4-fluoro-phenylamino}-5-methyl thieno[2,3-d]pyrimidine-6-carboxylic acid amide], 377 nM.
The same measure, in the same setting: then `COC(=O)N[C@H]1CCC[C@@H]1Oc1cc(F)ccc1Nc1ncnc2sc(C(N)=O)c(C)c12` [Example 294], with 183 nM; and `CC(=O)N[C@H]1CCC[C@@H]1Oc1cc(F)ccc1Nc1ncnc2sc(C(N)=O)c(C)c12` [Example 295, (1S,2S) 4-{2-[2-(Acetyl-amino)-cyclopentyloxy]-4-fluoro-phenylamino}-5-methyl thieno[2,3-d]pyrimidine-6-carboxylic acid amide], with 95 nM.
